We go through 19 compounds from patent US10125139B2, “Pesticidally active polycyclic derivatives with sulfur substituted five-membered ring heterocycles” (Syngenta Participations AG, priority 2015, dated 2018).

Holding throughout (assay type): in vivo
Assay [1] concerns Myzus persicae (Green Peach Aphid). Description: Example B5: Myzus persicae feeding/contact activity, sunflower leaf discs. The settings on record: foliar, 144 h, application rate of 200 ppm, 6 days after infestation. As for the experimental part:
Example B5: Myzus persicae (Green Peach Aphid): Feeding/Contact Activity
Sunflower leaf discs were placed onto agar in a 24-well microtiter plate and sprayed with aqueous test solutions prepared from 10,000 ppm DMSO stock solutions. After drying, the leaf discs were infested with an aphid population of mixed ages. The samples were assessed for mortality 6 days after infestation.

The subject of assay [2] is Spodoptera littoralis (Egyptian Cotton Leaf Worm). Kind of assay: Example B9: Spodoptera littoralis, cotton leaf discs, L1 larvae. The conditions noted are these: for percent control (mortality, anti-feedant effect or growth inhibition) at 200 ppm: Spodoptera littoralis, foliar, 72 h, application rate of 200 ppm, 3 days after infestation, L1 larvae. Here is the method: Example B9: Spodoptera littoralis (Egyptian Cotton Leaf Worm)
Cotton leaf discs were placed onto agar in 24-well microtiter plates and sprayed with aqueous test solutions prepared from 10,000 ppm DMSO stock solutions. After drying the leaf discs were infested with five L1 larvae. The samples were assessed for mortality, anti-feeding effect, and growth inhibition in comparison to untreated samples 3 days after infestation. Control of Spodoptera littoralis by a test sample is given when at least one of the categories mortality, anti-feedant effect, and growth inhibition is higher than the untreated sample.
(§1) Insecticidal action against Diabrotica balteata (Corn root worm), Plutella xylostella (Diamond black moth), and Spodoptera littoralis (Egyptian cotton leaf worm). The tests were carried out as described in biological examples B2, B8 and B9, respectively, with the larval feeding/contact activity (mortality only) being reported as Breakpoint (BP80) values in parts per million (i.e. the lowest concentration which gives 80% larval mortality).

Assay [3] has as its system Diabrotica balteata (Corn Root Worm). Kind of assay: Example B2: Diabrotica balteata, sprayed maize sprouts, L2 larvae. The settings on record: for percent effect (mortality or growth inhibition) at 200 ppm: Diabrotica balteata, 96 h, application rate of 200 ppm, 4 days after infestation, L2 larvae, read-out: effect in at least one of the two categories (mortality or growth inhibition). As for the experimental part: Example B2: Diabrotica balteata (Corn Root Worm)
Maize sprouts placed onto an agar layer in 24-well microtiter plates were treated with aqueous test solutions prepared from 10,000 ppm DMSO stock solutions by spraying. After drying, the plates were infested with L2 larvae (6 to 10 per well). The samples were assessed for mortality and growth inhibition in comparison to untreated samples 4 days after infestation. The following compounds gave an effect of at least 80% in at least one of the two categories (mortality or growth inhibition) at an application rate of 200 ppm:
as §1

Assay [4] deals with Euschistus heros (Neotropical Brown Stink Bug). Description: Example B3: Euschistus heros, sprayed soybean leaves, N2 nymphs. The conditions noted are these: 120 h, application rate of 200 ppm, 5 days after infestation, read-out: effect in at least one of the two categories (mortality or growth inhibition). Here is the method:
Example B3: Euschistus heros (Neotropical Brown Stink Bug)
Soybean leaves on agar in 24-well microtiter plates were sprayed with aqueous test solutions prepared from 10,000 ppm DMSO stock solutions. After drying the leaves were infested with N2 nymphs. The samples were assessed for mortality and growth inhibition in comparison to untreated samples 5 days after infestation. The following compounds gave an effect of at least 80% in at least one of the two categories (mortality or growth inhibition) at an application rate of 200 ppm: […]

For assay [5], the system named is Plutella xylostella (Diamond Back Moth). Description: Example B8: Plutella xylostella, artificial diet, L2 larvae. The conditions noted are these: for percent effect (mortality or growth inhibition) at 200 ppm: Plutella xylostella, 120 h, application rate of 200 ppm, 5 days after infestation, L2 larvae, read-out: effect in at least one of the two categories (mortality or growth inhibition). As for the experimental part:
Example B8: Plutella xylostella (Diamond Back Moth)
24-well microtiter plates with artificial diet were treated with aqueous test solutions prepared from 10,000 ppm DMSO stock solutions by pipetting. After drying, the plates were infested with L2 larvae (10 to 15 per well). The samples were assessed for mortality and growth inhibition in comparison to untreated samples 5 days after infestation. The following compounds gave an effect of at least 80% in at least one of the two categories (mortality or growth inhibition) at an application rate of 200 ppm:
as §1

Each structure is given as a SMILES string.

In general, mortality refers to the percentage killed. Higher therefore signals a strong lethal effect. Compound `CCSc1nc(Br)sc1-c1nc2cc(C(F)(F)F)ncc2n1C` [Example I-5, 2-bromo-4-ethylsulfanyl-5-[3-methyl-6-(trifluoromethyl)imidazo[4,5-c]pyridin-2-yl]thiazole] returned a mortality at 200 ppm in assay [1] of no less than 80%.

`CCS(=O)(=O)c1cc(I)sc1-c1nc2cc(SC(F)(F)F)ncc2n1C` [Example I-8, 2-(3-ethylsulfonyl-5-iodo-2-thienyl)-3-methyl-6-(trifluoromethylsulfanyl)imidazo[4,5-c]pyridine] showed a percent control (mortality, anti-feedant effect or growth inhibition) at 200 ppm in assay [2] of no less than 80%. Also, the percent effect (mortality or growth inhibition) at 200 ppm in assay [3], in assay [4] and in assay [5] was no less than 80% in each case. The mortality at 200 ppm in assay [1] was no less than 80%.

Consider `CCS(=O)(=O)c1sc(Br)nc1-c1nc2cc(C(F)(F)F)ncc2n1C` [Example I-9, 2-bromo-5-ethylsulfonyl-4-[3-methyl-6-(trifluoromethyl)imidazo[4,5-c]pyridin-2-yl]thiazole], for which the percent effect (mortality or growth inhibition) at 200 ppm in assay [3] was no less than 80%.

For the compound `CCSc1sc(Br)nc1-c1nc2cc(SC(F)(F)F)ncc2n1C` [Example I-10], in assay [5], the percent effect (mortality or growth inhibition) at 200 ppm was no less than 80%.

Regarding `CCS(=O)(=O)c1nc(Br)sc1-c1nc2cc(SC(F)(F)F)ncc2n1C` [Example I-11], in assay [3], the percent effect (mortality or growth inhibition) at 200 ppm was no less than 80%.

In turn, `CCS(=O)(=O)c1cc(-n2ccc(C(F)(F)F)n2)sc1-c1nc2cc(C(F)(F)F)ncc2n1C` [Example P-2, 2-[3-ethylsulfonyl-5-[3-(trifluoromethyl)pyrazol-1-yl]-2-thienyl]-3-methyl-6-(trifluoromethyl)imidazo[4,5-c]pyridine] displayed a percent control (mortality, anti-feedant effect or growth inhibition) at 200 ppm in assay [2] of no less than 80%. Also, the percent effect (mortality or growth inhibition) at 200 ppm in assay [3], in assay [4] and in assay [5] was no less than 80% each time. This compound also gave a mortality at 200 ppm in assay [1] of no less than 80%.

As to `CCSc1cc(-n2ccc(C(F)(F)F)n2)sc1-c1nc2cc(C(F)(F)F)ncc2n1C` [Example P-3, 2-[3-ethylsulfanyl-5-[3-(trifluoromethyl)pyrazol-1-yl]-2-thienyl]-3-methyl-6-(trifluoromethyl)imidazo[4,5-c]pyridine], the percent effect (mortality or growth inhibition) at 200 ppm in assay [3] and in assay [5] was no less than 80% in each case.

In turn, `CCSc1c(-c2nc3cc(C(F)(F)F)ncc3n2C)sc(-c2ccc(Cl)cc2)c1Cl` [Example P-7, 2-[4-chloro-5-(4-chlorophenyl)-3-ethylsulfanyl-2-thienyl]-3-methyl-6-(trifluoromethyl)imidazo[4,5-c]pyridine] had a percent control (mortality, anti-feedant effect or growth inhibition) at 200 ppm in assay [2] of no less than 80%. The percent effect (mortality or growth inhibition) at 200 ppm in assay [3], in assay [4] and in assay [5] was no less than 80% each time.

As for `CCS(=O)(=O)c1c(-c2nc3cc(C(F)(F)F)ncc3n2C)sc(-c2ccc(Cl)cc2)c1Cl` [Example P-8, 2-[4-chloro-5-(4-chlorophenyl)-3-ethylsulfonyl-2-thienyl]-3-methyl-6-(trifluoromethyl)imidazo[4,5-c]pyridine], in assay [2], the percent control (mortality, anti-feedant effect or growth inhibition) at 200 ppm was no less than 80%. The percent effect (mortality or growth inhibition) at 200 ppm in assay [3] and in assay [5] was no less than 80% in each case.

In turn, `CCS(=O)(=O)c1cc(-n2ccc(C(F)(F)F)n2)sc1-c1nc2cc(C(F)(F)F)nnc2n1C` [Example P-12, 6-[3-ethylsulfonyl-5-[3-(trifluoromethyl)pyrazol-1-yl]-2-thienyl]-7-methyl-3-(trifluoromethyl)imidazo[4,5-c]pyridazine] registered a percent control (mortality, anti-feedant effect or growth inhibition) at 200 ppm in assay [2] of no less than 80%. Also, the percent effect (mortality or growth inhibition) at 200 ppm in assay [3], in assay [4] and in assay [5] was no less than 80% throughout. The mortality at 200 ppm in assay [1] was no less than 80%.

Compound `CCS(=O)(=O)c1cc(-c2ncccn2)sc1-c1nc2cc(SC(F)(F)F)ncc2n1C` [Example P-16, 2-(3-ethylsulfonyl-5-pyrimidin-2-yl-2-thienyl)-3-methyl-6-(trifluoromethylsulfanyl)imidazo[4,5-c]pyridine] registered a percent control (mortality, anti-feedant effect or growth inhibition) at 200 ppm in assay [2] of no less than 80%. Besides, the percent effect (mortality or growth inhibition) at 200 ppm in assay [3], in assay [4] and in assay [5] was no less than 80% each time.

In assay [2], `CCS(=O)(=O)c1sc(-c2ccc(Cl)cc2)nc1-c1nc2cc(C(F)(F)F)ncc2n1C` [Example P-19, 2-(4-chlorophenyl)-5-ethylsulfonyl-4-[3-methyl-6-(trifluoromethyl)imidazo[4,5-c]pyridin-2-yl]thiazole] registered a percent control (mortality, anti-feedant effect or growth inhibition) at 200 ppm of no less than 80%. The percent effect (mortality or growth inhibition) at 200 ppm in assay [3] was no less than 80%.

For `CCS(=O)(=O)c1sc(-n2ccc(C(F)(F)F)n2)nc1-c1nc2cc(C(F)(F)F)ncc2n1C` [Example P-20, 5-ethylsulfonyl-4-[3-methyl-6-(trifluoromethyl)imidazo[4,5-c]pyridin-2-yl]-2-[3-(trifluoromethyl)pyrazol-1-yl]thiazole], in assay [2], the percent control (mortality, anti-feedant effect or growth inhibition) at 200 ppm is no less than 80%. Besides, the percent effect (mortality or growth inhibition) at 200 ppm in assay [3], in assay [4] and in assay [5] was no less than 80% throughout.

With `CCSc1sc(-n2ccc(C(F)(F)F)n2)nc1-c1nc2cc(C(F)(F)F)ncc2n1C` [Example P-21, 5-ethylsulfanyl-4-[3-methyl-6-(trifluoromethyl)imidazo[4,5-c]pyridin-2-yl]-2-[3-(trifluoromethyl)pyrazol-1-yl]thiazole], the percent effect (mortality or growth inhibition) at 200 ppm in assay [3] was no less than 80%.

In assay [2], `CCS(=O)(=O)c1sc(C2CC2)nc1-c1nc2cc(C(F)(F)F)ncc2n1C` [Example P-22, 2-cyclopropyl-5-ethylsulfonyl-4-[3-methyl-6-(trifluoromethyl)imidazo[4,5-c]pyridin-2-yl]thiazole] displayed a percent control (mortality, anti-feedant effect or growth inhibition) at 200 ppm of no less than 80%. In addition, the percent effect (mortality or growth inhibition) at 200 ppm in assay [3], in assay [4] and in assay [5] was no less than 80% in each case. Besides, in assay [1], the mortality at 200 ppm is no less than 80%.

`CCS(=O)(=O)c1sc(-c2ncccn2)nc1-c1nc2cc(C(F)(F)F)ncc2n1C` [Example P-23, 5-ethylsulfonyl-4-[3-methyl-6-(trifluoromethyl)imidazo[4,5-c]pyridin-2-yl]-2-pyrimidin-2-yl-thiazole] had a percent control (mortality, anti-feedant effect or growth inhibition) at 200 ppm in assay [2] of no less than 80%. In addition, the percent effect (mortality or growth inhibition) at 200 ppm in assay [3] and in assay [5] was no less than 80% each time.

Compound `CCS(=O)(=O)c1sc(-c2ccc(Cl)cc2)nc1-c1nc2cc(SC(F)(F)F)ncc2n1C` [Example P-24] had a percent control (mortality, anti-feedant effect or growth inhibition) at 200 ppm in assay [2] of no less than 80%. The percent effect (mortality or growth inhibition) at 200 ppm in assay [5] is no less than 80%.

`CCS(=O)(=O)c1sc(-c2cc(F)cc(F)c2)nc1-c1nc2cc(SC(F)(F)F)ncc2n1C` [Example P-26] had a percent control (mortality, anti-feedant effect or growth inhibition) at 200 ppm in assay [2] of no less than 80%. The percent effect (mortality or growth inhibition) at 200 ppm in assay [3] and in assay [5] was no less than 80% throughout.

For the compound `CCS(=O)(=O)c1cc(C(F)(F)F)sc1-c1nc2cc(C(F)(F)F)ncc2n1C` [Example V14.01, reference compound], the “BP80 (Breakpoint, lowest concentration which gives 80% larval mortality) Spodoptera littoralis” value in assay [2] (larval feeding/contact activity, mortality only, test as in B9) came to 50 ppm. Further, in assay [3] (larval feeding/contact activity, mortality only, test as in B2), the “BP80 (Breakpoint, lowest concentration which gives 80% larval mortality) Diabrotica balteata” value amounted to 50 ppm. Also, in assay [5] (larval feeding/contact activity, mortality only, test as in B8), the “BP80 (Breakpoint, lowest concentration which gives 80% larval mortality) Plutella xylostella” value was 50 ppm.
